# Laboratory results: PubChem BioAssay (NCI)
#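 A five-concentration, 48-hour dose response in 96-well plates underlies each endpoint, interpolated linearly between surrounding concentrations. At the GI50, growth is halved. Definition used: TGI = concentration required for complete inhibition of growth.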
# Assays:
# Experiment in all cases: NCI anticancer screen, dose series, 48 h
# U251 CNS = tested on: U251 CNS
# HOP-62 NSCLC = tested on: HOP-62 NSCLC
# HCT-116 colon = tested on: HCT-116 colon
# SK-MEL-5 melanoma = tested on: SK-MEL-5 melanoma
# SK-MEL-28 melanoma = tested on: SK-MEL-28 melanoma
# UACC-62 melanoma = tested on: UACC-62 melanoma
# OVCAR-3 ovarian = tested on: OVCAR-3 ovarian
# NCI-H23 lung = tested on: NCI-H23 lung
# A498 renal = tested on: A498 renal
# KM12 colon = tested on: KM12 colon
smiles,measurement,setting,value
CN(C)CCNC(=O)c1cccc2ccc(-c3cccnc3)nc12,TGI,U251 CNS,19.3 µM
same,TGI,HOP-62 NSCLC,19.2 µM
same,TGI,HCT-116 colon,13.1 µM
same,TGI,SK-MEL-5 melanoma,12.9 µM
same,TGI,SK-MEL-28 melanoma,24.3 µM
same,TGI,UACC-62 melanoma,14.8 µM
same,TGI,OVCAR-3 ovarian,36.9 µM
same,TGI,NCI-H23 lung,16.1 µM
same,TGI,A498 renal,8.22 µM
same,TGI,KM12 colon,98.4 µM
COc1ccc(C2=CC(c3ccc(Oc4ccnc5cc(Cl)ccc45)c(OC)c3)c3c(nc(OC)[nH]c3=O)N2)cc1 (stereo not given),GI50,U251 CNS,6.94 µM
same,TGI,U251 CNS,> 100 µM
same,GI50,HOP-62 NSCLC,84.9 µM
same,TGI,HOP-62 NSCLC,> 100 µM
same,GI50,HCT-116 colon,3.62 µM
same,TGI,HCT-116 colon,> 100 µM
same,GI50,SK-MEL-5 melanoma,7.28 µM
same,TGI,SK-MEL-5 melanoma,34.1 µM
same,GI50,SK-MEL-28 melanoma,45.3 µM
same,TGI,SK-MEL-28 melanoma,> 100 µM
same,GI50,UACC-62 melanoma,4.39 µM
same,TGI,UACC-62 melanoma,35.7 µM
same,GI50,OVCAR-3 ovarian,6.46 µM
same,TGI,OVCAR-3 ovarian,> 100 µM
same,GI50,NCI-H23 lung,9.03 µM
same,TGI,NCI-H23 lung,> 100 µM
same,GI50,A498 renal,48 µM
same,TGI,A498 renal,> 100 µM
same,GI50,KM12 colon,5.91 µM
same,TGI,KM12 colon,> 100 µM
COc1ccc(N2CCN(CN3CCN(c4ccc(OC)cc4)C3)C2)cc1,GI50,U251 CNS,> 100 µM
same,TGI,U251 CNS,> 100 µM
same,GI50,HOP-62 NSCLC,81.5 µM
same,TGI,HOP-62 NSCLC,> 100 µM
same,GI50,HCT-116 colon,20.2 µM
same,TGI,HCT-116 colon,50 µM
same,GI50,SK-MEL-5 melanoma,> 100 µM
same,TGI,SK-MEL-5 melanoma,> 100 µM
same,GI50,SK-MEL-28 melanoma,> 100 µM
same,TGI,SK-MEL-28 melanoma,> 100 µM
same,GI50,UACC-62 melanoma,> 100 µM
same,TGI,UACC-62 melanoma,> 100 µM
same,GI50,OVCAR-3 ovarian,> 100 µM
same,TGI,OVCAR-3 ovarian,> 100 µM
same,GI50,NCI-H23 lung,48 µM
same,TGI,NCI-H23 lung,> 100 µM
same,GI50,A498 renal,1.82 µM
same,TGI,A498 renal,> 100 µM
same,GI50,KM12 colon,> 100 µM
same,TGI,KM12 colon,> 100 µM
O=C(c1ccccn1)c1nc(-c2ccc(Cl)c(Cl)c2)nc2ccc(Cl)cc12,TGI,U251 CNS,> 100 µM
same,TGI,HOP-62 NSCLC,> 100 µM
same,TGI,HCT-116 colon,33.4 µM
same,TGI,SK-MEL-5 melanoma,> 100 µM
same,TGI,SK-MEL-28 melanoma,> 100 µM
same,TGI,UACC-62 melanoma,> 100 µM
same,TGI,OVCAR-3 ovarian,> 100 µM
same,TGI,NCI-H23 lung,87.5 µM
same,TGI,A498 renal,> 100 µM
same,TGI,KM12 colon,> 100 µM
COc1ccc2[nH]c(-c3ccccc3)c(C=C(C#N)C#N)c2c1,GI50,U251 CNS,3.53 µM
same,TGI,U251 CNS,25.5 µM
same,GI50,HOP-62 NSCLC,5.31 µM
same,TGI,HOP-62 NSCLC,36.1 µM
same,GI50,HCT-116 colon,4.37 µM
same,TGI,HCT-116 colon,> 100 µM
same,GI50,SK-MEL-5 melanoma,2.87 µM
same,TGI,SK-MEL-5 melanoma,> 100 µM
same,GI50,SK-MEL-28 melanoma,4.44 µM
same,TGI,SK-MEL-28 melanoma,> 100 µM
same,GI50,UACC-62 melanoma,2.53 µM
same,TGI,UACC-62 melanoma,21.7 µM
same,GI50,OVCAR-3 ovarian,3.08 µM
same,TGI,OVCAR-3 ovarian,16 µM
same,GI50,NCI-H23 lung,4.08 µM
same,TGI,NCI-H23 lung,> 100 µM
same,GI50,A498 renal,2.01 µM
same,TGI,A498 renal,6.22 µM
same,GI50,KM12 colon,3.45 µM
same,TGI,KM12 colon,> 100 µM
O=C(C[C@@]1(O)C(=O)Nc2c(Cl)ccc(Cl)c21)c1ccc(C2CC2)cc1,GI50,U251 CNS,0.436 µM
same,TGI,U251 CNS,16.2 µM
same,GI50,HOP-62 NSCLC,0.516 µM
same,TGI,HOP-62 NSCLC,19.2 µM
same,GI50,HCT-116 colon,0.437 µM
same,TGI,HCT-116 colon,11.9 µM
same,GI50,SK-MEL-5 melanoma,0.355 µM
same,TGI,SK-MEL-5 melanoma,11.6 µM
same,GI50,SK-MEL-28 melanoma,3.5 µM
same,TGI,SK-MEL-28 melanoma,23.5 µM
same,GI50,UACC-62 melanoma,0.378 µM
same,TGI,UACC-62 melanoma,15.6 µM
same,GI50,OVCAR-3 ovarian,0.264 µM
same,TGI,OVCAR-3 ovarian,3.71 µM
same,GI50,NCI-H23 lung,0.634 µM
same,TGI,NCI-H23 lung,19.3 µM
same,GI50,A498 renal,0.213 µM
same,TGI,A498 renal,0.75 µM
same,GI50,KM12 colon,0.318 µM
same,TGI,KM12 colon,14.2 µM
CCCCNC(=O)OCC(COc1ccccc1OC)OC(=O)NCCCC (stereo not given),TGI,U251 CNS,> 100 µM
same,TGI,HOP-62 NSCLC,> 100 µM
same,TGI,HCT-116 colon,> 100 µM
same,TGI,SK-MEL-5 melanoma,> 100 µM
same,TGI,SK-MEL-28 melanoma,> 100 µM
same,TGI,UACC-62 melanoma,> 100 µM
same,TGI,OVCAR-3 ovarian,> 100 µM
same,TGI,NCI-H23 lung,> 100 µM
same,TGI,A498 renal,> 100 µM
same,TGI,KM12 colon,> 100 µM
COc1ccc(OC)c(/C=C/C(=O)C(C)(C)C)c1,TGI,U251 CNS,43.1 µM
same,TGI,HOP-62 NSCLC,50.8 µM
same,TGI,HCT-116 colon,31.8 µM
same,TGI,SK-MEL-5 melanoma,29.1 µM
same,TGI,SK-MEL-28 melanoma,31.8 µM
same,TGI,UACC-62 melanoma,23.4 µM
same,TGI,OVCAR-3 ovarian,49.5 µM
same,TGI,NCI-H23 lung,40.4 µM
same,TGI,A498 renal,80 µM
same,TGI,KM12 colon,52.9 µM
O=C1NC2(CCCC2)/C(=N\O)C12CCCC2,TGI,U251 CNS,> 100 µM
same,TGI,HOP-62 NSCLC,> 100 µM
same,TGI,HCT-116 colon,> 100 µM
same,TGI,SK-MEL-5 melanoma,> 100 µM
same,TGI,SK-MEL-28 melanoma,> 100 µM
same,TGI,UACC-62 melanoma,> 100 µM
same,TGI,OVCAR-3 ovarian,> 100 µM
same,TGI,NCI-H23 lung,> 100 µM
same,TGI,A498 renal,> 100 µM
same,TGI,KM12 colon,> 100 µM
C=CC1(c2ccccc2Cl)N/C(=C/OCC)CO1 (stereo not given),TGI,U251 CNS,> 100 µM
same,TGI,HOP-62 NSCLC,> 100 µM
same,TGI,HCT-116 colon,> 100 µM
same,TGI,SK-MEL-5 melanoma,> 100 µM
same,TGI,SK-MEL-28 melanoma,> 100 µM
same,TGI,UACC-62 melanoma,> 100 µM
same,TGI,OVCAR-3 ovarian,> 100 µM
same,TGI,NCI-H23 lung,> 100 µM
same,TGI,A498 renal,> 100 µM
same,TGI,KM12 colon,> 100 µM
CCOC(=O)C1(Br)C(c2ccccc2)NC(=O)N(C2OC(COC(=O)c3ccccc3)C(OC(=O)c3ccccc3)C2OC(=O)c2ccccc2)C1(C)Br (stereo not given),TGI,U251 CNS,> 100 µM
same,TGI,HOP-62 NSCLC,> 100 µM
same,TGI,HCT-116 colon,52.2 µM
same,TGI,SK-MEL-5 melanoma,31.3 µM
same,TGI,SK-MEL-28 melanoma,> 83.8 µM
same,TGI,UACC-62 melanoma,60.1 µM
same,TGI,OVCAR-3 ovarian,> 89.6 µM
same,TGI,NCI-H23 lung,> 100 µM
same,TGI,A498 renal,> 100 µM
same,TGI,KM12 colon,99.6 µM
OC(COc1cccc2ccccc12)CN1CCN(c2ccc(Cl)cc2)CC1 (stereo not given),GI50,U251 CNS,12.6 µM
same,TGI,U251 CNS,29.9 µM
same,GI50,HOP-62 NSCLC,8.53 µM
same,TGI,HOP-62 NSCLC,29.6 µM
same,GI50,HCT-116 colon,23.4 µM
same,TGI,HCT-116 colon,> 100 µM
same,GI50,SK-MEL-5 melanoma,55.8 µM
same,TGI,SK-MEL-5 melanoma,> 100 µM
same,GI50,SK-MEL-28 melanoma,26.9 µM
same,TGI,SK-MEL-28 melanoma,71.6 µM
same,GI50,UACC-62 melanoma,23.3 µM
same,TGI,UACC-62 melanoma,> 100 µM
same,GI50,OVCAR-3 ovarian,23.8 µM
same,TGI,OVCAR-3 ovarian,69.1 µM
same,GI50,NCI-H23 lung,29.4 µM
same,TGI,NCI-H23 lung,> 100 µM
same,GI50,A498 renal,21.3 µM
same,TGI,A498 renal,92 µM
same,GI50,KM12 colon,38.3 µM
same,TGI,KM12 colon,> 100 µM
CN(C)c1ccc(/C=C/c2ccnc3ccc4ccccc4c23)cc1,TGI,U251 CNS,> 100 µM
same,TGI,HOP-62 NSCLC,> 100 µM
same,TGI,HCT-116 colon,> 100 µM
same,TGI,SK-MEL-5 melanoma,> 100 µM
same,TGI,SK-MEL-28 melanoma,> 100 µM
same,TGI,UACC-62 melanoma,> 100 µM
same,TGI,OVCAR-3 ovarian,> 100 µM
same,TGI,NCI-H23 lung,> 100 µM
same,TGI,A498 renal,69.1 µM
same,TGI,KM12 colon,> 100 µM
O=c1c2[nH]c3ccccc3c2nc2n1CCS2,GI50,U251 CNS,> 100 µM
same,TGI,U251 CNS,> 100 µM
same,GI50,HOP-62 NSCLC,> 100 µM
same,TGI,HOP-62 NSCLC,> 100 µM
same,GI50,HCT-116 colon,> 100 µM
same,TGI,HCT-116 colon,> 100 µM
same,GI50,SK-MEL-5 melanoma,> 100 µM
same,TGI,SK-MEL-5 melanoma,> 100 µM
same,GI50,SK-MEL-28 melanoma,> 100 µM
same,TGI,SK-MEL-28 melanoma,> 100 µM
same,GI50,UACC-62 melanoma,92.7 µM
same,TGI,UACC-62 melanoma,> 100 µM
same,GI50,OVCAR-3 ovarian,> 100 µM
same,TGI,OVCAR-3 ovarian,> 100 µM
same,GI50,NCI-H23 lung,> 100 µM
same,TGI,NCI-H23 lung,> 100 µM
same,GI50,A498 renal,56 µM
same,TGI,A498 renal,> 100 µM
same,GI50,KM12 colon,67 µM
same,TGI,KM12 colon,> 100 µM
NC(=S)N/N=C1\C(=O)N(CCc2ccccc2)C(=O)C1C(=O)NCCc1ccccc1 (stereo not given),TGI,U251 CNS,> 100 µM
same,TGI,HOP-62 NSCLC,> 100 µM
same,TGI,HCT-116 colon,> 100 µM
same,TGI,SK-MEL-5 melanoma,> 100 µM
same,TGI,SK-MEL-28 melanoma,> 100 µM
same,TGI,UACC-62 melanoma,> 100 µM
same,TGI,OVCAR-3 ovarian,> 100 µM
same,TGI,NCI-H23 lung,> 100 µM
same,TGI,A498 renal,> 100 µM
same,TGI,KM12 colon,> 100 µM
O=[N+]([O-])c1cccc(/C=C/c2ccccn2)c1,GI50,U251 CNS,6.68 µM
same,TGI,U251 CNS,> 100 µM
same,GI50,HOP-62 NSCLC,40.7 µM
same,TGI,HOP-62 NSCLC,> 100 µM
same,GI50,HCT-116 colon,7.02 µM
same,TGI,HCT-116 colon,> 100 µM
same,GI50,SK-MEL-5 melanoma,28.7 µM
same,TGI,SK-MEL-5 melanoma,> 100 µM
same,GI50,SK-MEL-28 melanoma,> 100 µM
same,TGI,SK-MEL-28 melanoma,> 100 µM
same,GI50,UACC-62 melanoma,60 µM
same,TGI,UACC-62 melanoma,> 100 µM
same,GI50,OVCAR-3 ovarian,12.4 µM
same,TGI,OVCAR-3 ovarian,> 100 µM
same,GI50,NCI-H23 lung,30 µM
same,TGI,NCI-H23 lung,> 100 µM
same,GI50,A498 renal,7.19 µM
same,TGI,A498 renal,> 100 µM
same,GI50,KM12 colon,24.2 µM
same,TGI,KM12 colon,> 100 µM
